The results in this text go back to patent publication US7947305B2, “Fat-soluble drug composition” (Riken Vitamin Co., Ltd., priority 2005, dated 2011).

The nature of the series: HLB value of emulsifiers. It is filed as physicochemical. The note with it: emulsifier raw material. As for the experimental part: The HLB value (Hydrophile Lipophile Balance) refers to a value showing hydrophilicity of a surfactant. This is an index representing the balance of the lipophilicity and hydrophilicity of the object compound, which is determined as a relative value to an HLB value for a hypothetical compound, generally an ethylene oxide adduct-type nonionic surfactant having an infinite long hydrophilic group attached to a lipophilic group and having the maximum hydrophilicity, which is set to 20, and to an HLB value for a lipophilic compound having no hydrophilic group, which is set to 0.
Take `CCCCCCCC/C=C\CCCCCCCC(=O)OCC(O)CO` (stereo not drawn) [Glycerol oleate, glycerol monooleate]: the HLB is on record as 4.3.

In turn, “decaglycerol laurate [Decaglycerol monolaurate]” had an HLB of 15.0.

The compound diglycerol monooleate yielded an HLB of 7.4.
